The supplement of paper PMC10307832

Columns and labels:
Experiment in all cases: relative viability (nuclei count vs DMSO), 5 days (fraction); higher = more cells survive
[1] = compound: Cc1ccccc1C(C(=O)NC1CCCCC1)N(C(=O)Cn1ccnc1C)c1cccc(F)c1 [IDH-C35] + COc1cc2c(Oc3ccc(NC(=O)C4(C(=O)Nc5ccc(F)cc5)CC4)cc3F)ccnc2cc1OCCCN1CCOCC1 [Foretinib] (partner 0.25 µM)
In short: (§1)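 Relative viability equals treated-well nuclei counts divided by vehicle-well nuclei counts. Counts came from 4× images of lung cancer cell lines grown in 1536-well plates for 5 days after pin-tool dosing on the day after seeding. Dosing used one drug alone or a fixed anchor-drug dose plus five library-drug doses (not always all listed) in √10 steps, and values are medians of duplicate plates.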

[2] = compound: Cc1ccccc1C(C(=O)NC1CCCCC1)N(C(=O)Cn1ccnc1C)c1cccc(F)c1 [IDH-C35] + CC(=O)Nc1cccc(-n2c(=O)n(C3CC3)c(=O)c3c(Nc4ccc(I)cc4F)n(C)c(=O)c(C)c32)c1 [Trametinib] (partner 0.02 µM)
In short: as §1

[3] = compound: CC1=C(C(=NN1)C)CC2=C(C3=C(S2)N(C(=O)N(C3=O)C)CC(C)C)C(=O)N4C[C@@H](CO4)O + Cc1nc(Nc2ncc(C(=O)Nc3c(C)cccc3Cl)s2)cc(N2CCN(CCO)CC2)n1 [Dasatinib] (partner 0.075 µM)
In short: as §1

[4] = compound: CC1=C(C(=NN1)C)CC2=C(C3=C(S2)N(C(=O)N(C3=O)C)CC(C)C)C(=O)N4C[C@@H](CO4)O + CC(C)C[C@H](NC(=O)[C@H](Cc1ccccc1)NC(=O)c1cnccn1)B(O)O [Bortezomib] (partner 0.002 µM)
In short: as §1

Cell Line: NCI-H647
- relative viability ([1]; first compound 0.08 µM): 1.36
- relative viability ([1]; first compound 0.253 µM): 1.13
- relative viability ([1]; first compound 0.8 µM): 1.28
- relative viability ([1]; first compound 2.53 µM): 1.17
- relative viability ([1]; first compound 8 µM): 1.02
- relative viability ([2]; first compound 0.08 µM): 0.488
- relative viability ([2]; first compound 0.253 µM): 0.378
- relative viability ([2]; first compound 0.8 µM): 0.444
- relative viability ([2]; first compound 2.53 µM): 0.473
- relative viability ([2]; first compound 8 µM): 0.47
- relative viability ([3]; first compound 0.0025 µM): 0.408
- relative viability ([3]; first compound 0.007906 µM): 0.241
- relative viability ([3]; first compound 0.025 µM): 0.194
- relative viability ([3]; first compound 0.07906 µM): 0.112
- relative viability ([3]; first compound 0.25 µM): 0.15
- relative viability ([4]; first compound 0.0025 µM): 1.27
- relative viability ([4]; first compound 0.007906 µM): 1.09
- relative viability ([4]; first compound 0.025 µM): 0.802
- relative viability ([4]; first compound 0.07906 µM): 1.11
- relative viability ([4]; first compound 0.25 µM): 1.1

Cell Line: SK-LU-1
- relative viability ([1]; first compound 0.08 µM): 0.833
- relative viability ([1]; first compound 0.253 µM): 0.839
- relative viability ([1]; first compound 0.8 µM): 0.87
- relative viability ([1]; first compound 2.53 µM): 0.878
- relative viability ([1]; first compound 8 µM): 0.901
- relative viability ([2]; first compound 0.08 µM): 0.454
- relative viability ([2]; first compound 0.253 µM): 0.489
- relative viability ([2]; first compound 0.8 µM): 0.507
- relative viability ([2]; first compound 2.53 µM): 0.485
- relative viability ([2]; first compound 8 µM): 0.536
- relative viability ([3]; first compound 0.0025 µM): 0.194
- relative viability ([3]; first compound 0.007906 µM): 0.195
- relative viability ([3]; first compound 0.025 µM): 0.192
- relative viability ([3]; first compound 0.07906 µM): 0.169
- relative viability ([3]; first compound 0.25 µM): 0.182
- relative viability ([4]; first compound 0.0025 µM): 1.15
- relative viability ([4]; first compound 0.007906 µM): 0.752
- relative viability ([4]; first compound 0.025 µM): 0.425
- relative viability ([4]; first compound 0.07906 µM): 0.789
- relative viability ([4]; first compound 0.25 µM): 0.541

Cell Line: ChaGo-K-1
- relative viability ([1]; first compound 0.08 µM): 0.871
- relative viability ([1]; first compound 0.253 µM): 0.973
- relative viability ([1]; first compound 0.8 µM): 0.913
- relative viability ([1]; first compound 2.53 µM): 0.928
- relative viability ([1]; first compound 8 µM): 0.839
- relative viability ([2]; first compound 0.08 µM): 0.897
- relative viability ([2]; first compound 0.253 µM): 0.878
- relative viability ([2]; first compound 0.8 µM): 0.944
- relative viability ([2]; first compound 2.53 µM): 0.844
- relative viability ([2]; first compound 8 µM): 0.899
- relative viability ([3]; first compound 0.0025 µM): 0.616
- relative viability ([3]; first compound 0.007906 µM): 0.605
- relative viability ([3]; first compound 0.025 µM): 0.565
- relative viability ([3]; first compound 0.07906 µM): 0.503
- relative viability ([3]; first compound 0.25 µM): 0.513
- relative viability ([4]; first compound 0.0025 µM): 0.906
- relative viability ([4]; first compound 0.007906 µM): 0.859
- relative viability ([4]; first compound 0.07906 µM): 1.11
- relative viability ([4]; first compound 0.25 µM): 1.35

Cell Line: NCI-H1650
- relative viability ([1]; first compound 0.08 µM): 1.11
- relative viability ([1]; first compound 0.253 µM): 1.13
- relative viability ([1]; first compound 0.8 µM): 1.23
- relative viability ([1]; first compound 2.53 µM): 0.879
- relative viability ([1]; first compound 8 µM): 1.14
- relative viability ([2]; first compound 0.08 µM): 0.548
- relative viability ([2]; first compound 0.253 µM): 0.599
- relative viability ([2]; first compound 0.8 µM): 0.614
- relative viability ([2]; first compound 2.53 µM): 0.644
- relative viability ([2]; first compound 8 µM): 0.504
- relative viability ([3]; first compound 0.0025 µM): 0.425
- relative viability ([3]; first compound 0.007906 µM): 0.362
- relative viability ([3]; first compound 0.025 µM): 0.287
- relative viability ([3]; first compound 0.07906 µM): 0.457
- relative viability ([3]; first compound 0.25 µM): 0.227
- relative viability ([4]; first compound 0.0025 µM): 0.218
- relative viability ([4]; first compound 0.007906 µM): 0.203
- relative viability ([4]; first compound 0.025 µM): 0.234
- relative viability ([4]; first compound 0.07906 µM): 0.17
- relative viability ([4]; first compound 0.25 µM): 0.189

Cell Line: NCI-H2009
- relative viability ([1]; first compound 0.08 µM): 1.17
- relative viability ([1]; first compound 0.253 µM): 1.28
- relative viability ([1]; first compound 0.8 µM): 1.24
- relative viability ([1]; first compound 2.53 µM): 1.13
- relative viability ([1]; first compound 8 µM): 1.18
- relative viability ([2]; first compound 0.08 µM): 0.29
- relative viability ([2]; first compound 0.253 µM): 0.308
- relative viability ([2]; first compound 0.8 µM): 0.314
- relative viability ([2]; first compound 2.53 µM): 0.34
- relative viability ([2]; first compound 8 µM): 0.288
- relative viability ([3]; first compound 0.0025 µM): 0.354
- relative viability ([3]; first compound 0.007906 µM): 0.301
- relative viability ([3]; first compound 0.025 µM): 0.253
- relative viability ([3]; first compound 0.07906 µM): 0.247
- relative viability ([3]; first compound 0.25 µM): 0.267
- relative viability ([4]; first compound 0.0025 µM): 1.03
- relative viability ([4]; first compound 0.007906 µM): 1.08
- relative viability ([4]; first compound 0.025 µM): 0.975
- relative viability ([4]; first compound 0.07906 µM): 1.09
- relative viability ([4]; first compound 0.25 µM): 1.13

Cell Line: LOU-NH91
- relative viability ([1]; first compound 0.08 µM): 0.949
- relative viability ([1]; first compound 0.253 µM): 0.946
- relative viability ([1]; first compound 0.8 µM): 0.92
- relative viability ([1]; first compound 2.53 µM): 0.918
- relative viability ([1]; first compound 8 µM): 0.913
- relative viability ([2]; first compound 0.08 µM): 0.804
- relative viability ([2]; first compound 0.253 µM): 0.785
- relative viability ([2]; first compound 0.8 µM): 0.781
- relative viability ([2]; first compound 2.53 µM): 0.742
- relative viability ([2]; first compound 8 µM): 0.803
- relative viability ([3]; first compound 0.0025 µM): 0.61
- relative viability ([3]; first compound 0.007906 µM): 0.588
- relative viability ([3]; first compound 0.025 µM): 0.55
- relative viability ([3]; first compound 0.07906 µM): 0.54
- relative viability ([3]; first compound 0.25 µM): 0.619
- relative viability ([4]; first compound 0.0025 µM): 0.473
- relative viability ([4]; first compound 0.007906 µM): 0.486
- relative viability ([4]; first compound 0.025 µM): 0.546
- relative viability ([4]; first compound 0.07906 µM): 0.423
- relative viability ([4]; first compound 0.25 µM): 0.476

Cell Line: NCI-H2405
- relative viability ([1]; first compound 0.08 µM): 1.04
- relative viability ([1]; first compound 0.253 µM): 1.04
- relative viability ([1]; first compound 0.8 µM): 1.06
- relative viability ([1]; first compound 2.53 µM): 1.14
- relative viability ([1]; first compound 8 µM): 1.05
- relative viability ([2]; first compound 0.08 µM): 0.66
- relative viability ([2]; first compound 0.253 µM): 0.679
- relative viability ([2]; first compound 0.8 µM): 0.59
- relative viability ([2]; first compound 2.53 µM): 0.58
- relative viability ([2]; first compound 8 µM): 0.589
- relative viability ([3]; first compound 0.0025 µM): 0.216
- relative viability ([3]; first compound 0.007906 µM): 0.223
- relative viability ([3]; first compound 0.07906 µM): 0.238
- relative viability ([3]; first compound 0.25 µM): 0.224
- relative viability ([4]; first compound 0.0025 µM): 0.991
- relative viability ([4]; first compound 0.007906 µM): 0.912
- relative viability ([4]; first compound 0.025 µM): 0.918
- relative viability ([4]; first compound 0.07906 µM): 0.858
- relative viability ([4]; first compound 0.25 µM): 0.941

Cell Line: LCLC-97TM1
- relative viability ([1]; first compound 0.08 µM): 0.921
- relative viability ([1]; first compound 0.253 µM): 0.865
- relative viability ([1]; first compound 0.8 µM): 0.947
- relative viability ([1]; first compound 2.53 µM): 1.02
- relative viability ([1]; first compound 8 µM): 0.954
- relative viability ([2]; first compound 0.08 µM): 0.183
- relative viability ([2]; first compound 0.253 µM): 0.2
- relative viability ([2]; first compound 0.8 µM): 0.21
- relative viability ([2]; first compound 8 µM): 0.243
- relative viability ([3]; first compound 0.0025 µM): 0.898
- relative viability ([3]; first compound 0.007906 µM): 0.897
- relative viability ([3]; first compound 0.025 µM): 0.735
- relative viability ([3]; first compound 0.07906 µM): 0.852
- relative viability ([3]; first compound 0.25 µM): 0.878
- relative viability ([4]; first compound 0.0025 µM): 0.657
- relative viability ([4]; first compound 0.007906 µM): 0.484
- relative viability ([4]; first compound 0.025 µM): 0.347
- relative viability ([4]; first compound 0.07906 µM): 0.637
- relative viability ([4]; first compound 0.25 µM): 0.949
